This is an account of results in patent US10683260B2, “Crystalline form of sacubitril sodium salt” (NORATECH PHARMACEUTICALS, INC., priority 2016, dated 2020).

A short description of data set [1]: Determination of the hygroscopicity (water absorption in artificial climate chamber). The format is physicochemical. To be noted: for Water absorption, %: open weighing bottle, 25±1° C., relative humidity 43.5±2%; for water content: open container, 25° C., relative humidity 43.5%, 3 hours. How it is done: 1. Take a dry stuffed glass weighing bottle (outer diameter 50 mm, height 15 mm) in the artificial climate chamber (set temperature is 25±1° C., relative humidity is 43.5±2%) and weight it (m1).
2. Take the appropriate amount of the crystalline form in the present invention, and place it in the abovementioned weighing bottle and lay it inside the weighing bottle. The thickness of the test sample is generally about 1 mm. Weight the sample (m2).
3. Uncover the weighing bottle and place it with the bottle cap under constant temperature and humidity (set temperature is 25±1° C., relative humidity is 43.5±2%).
4. Put the cap back on the weighing bottle before weighing, and then weight it (m3). The water absorption percentage for each time point is calculated by the formula=(m3−m2)/(m2−m1)×100%.

For data set [2] the following is noted: free acid; background statement; cited from earlier work.
Data set [3] addresses T1, AT1 receptor (Homo sapiens, UniProt P30556).
T1 sequence (P30556 1-359): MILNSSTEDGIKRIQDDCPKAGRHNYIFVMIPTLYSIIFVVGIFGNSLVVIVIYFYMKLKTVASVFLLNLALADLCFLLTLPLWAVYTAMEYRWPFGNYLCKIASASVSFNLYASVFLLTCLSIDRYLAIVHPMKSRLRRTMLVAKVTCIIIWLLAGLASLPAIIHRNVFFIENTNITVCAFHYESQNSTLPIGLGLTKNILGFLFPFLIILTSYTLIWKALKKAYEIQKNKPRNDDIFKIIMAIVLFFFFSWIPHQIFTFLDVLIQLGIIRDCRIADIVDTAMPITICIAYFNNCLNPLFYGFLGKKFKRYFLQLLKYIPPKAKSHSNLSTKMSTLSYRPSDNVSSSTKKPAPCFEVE
Conditions: AT1 versus AT2 receptor; background statement; cited from earlier work.

In the case of `CCOC(=O)[C@H](C)C[C@@H](Cc1ccc(-c2ccccc2)cc1)NC(=O)CCC(=O)[O-].[Na+]` [A], the figures for the “Water absorption, %” value in data set [1] (1.5 h) and in data set [1] (3 h) were 0.6% and 1.4%, respectively. Moreover, in data set [1] (listed as crystalline form A), the water content was determined as 1.4%.

Consider `CCOC(=O)[C@H](C)C[C@@H](Cc1ccc(-c2ccccc2)cc1)NC(=O)CCC(=O)[O-].[Na+]` [B], for which the results for the “Water absorption, %” value in data set [1] (1.5 h) and in data set [1] (3 h) were 0.5% and 1.0%, respectively.

As to `CCOC(=O)[C@H](C)C[C@@H](Cc1ccc(-c2ccccc2)cc1)NC(=O)CCC(=O)[O-].[Na+]` [C], the “Water absorption, %” value in data set [1] (1.5 h) is recorded as 1.2%; in data set [1] (3 h) it was 2.4%. Besides, the water content in data set [1] (listed as crystalline form C) was 2.4%.

As for `CCOC(=O)[C@H](C)C[C@@H](Cc1ccc(-c2ccccc2)cc1)NC(=O)CCC(=O)[O-].[Na+]` [D], the “Water absorption, %” value in data set [1] (1.5 h) stood at 1.5%; in data set [1] (3 h), 3.2%.

With `CCOC(=O)[C@H](C)C[C@@H](Cc1ccc(-c2ccccc2)cc1)NC(=O)CCC(=O)[O-].[Na+]` [E], the “Water absorption, %” value in data set [1] (1.5 h) amounted to 2.4%; in data set [1] (3 h), 4.3%.

For `CCOC(=O)[C@H](C)C[C@@H](Cc1ccc(-c2ccccc2)cc1)NC(=O)CCC(=O)[O-].[Na+]` [sacubitril sodium salt X, reference compound], the “Water absorption, %” value in data set [1] (1.5 h) is listed as 8.3%; in data set [1] (3 h), 11.0%. The “hygroscopicity (in words)” value in data set [1] (solid form, no conditions stated) is “great hygroscopicity”.

As for `CCOC(=O)[C@H](C)C[C@@H](Cc1ccc(-c2ccccc2)cc1)NC(=O)CCC(=O)O` [sacubitril, 4-{[(2S,4R)-1-([1,1′-biphenyl]-4-yl)-5-ethoxy-4-methyl-5-oxopentan-2-yl]amino}-4-oxobutanoic acid], the “water solubility (in words)” value in data set [2] is given as “poor water solubility”.

For AngII, the “affinity for the AT1 receptor relative to the AT2 receptor” value in data set [3] is given as 300 times.
